The target in the test is T1, LmrR (Lactococcus cremoris, UniProt A2RI36).
T1 construct: gene llmg_0323; C-terminal His6-tagged LmrR (homodimer)
The test can be described thus: ITC ([…] stoichiometry, […] °C); supported by NMR titration. The test is classed as binding.

The record followed here is publication PMC5428041, “Dynamic equilibrium on DNA defines transcriptional regulation of a multidrug binding transcriptional repressor, LmrR” (Scientific Reports, 2017).

T1 sequence (A2RI36 entry or part of it): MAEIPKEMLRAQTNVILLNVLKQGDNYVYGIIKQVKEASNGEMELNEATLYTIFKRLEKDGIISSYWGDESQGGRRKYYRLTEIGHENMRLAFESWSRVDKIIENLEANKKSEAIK

`Cc1cc2nc3c(=O)[nH]c(=O)nc-3n(C[C@H](O)[C@H](O)[C@H](O)CO)c2cc1C` [riboflavin] yielded a Kd of 330 nM.

For orientation: Kd means the concentration at which binding is half-saturated. Read a high Kd as a looser complex.
